Structures are written as SMILES. “And” between values parts separate entries of the source, which are not always exact repeats. Equal values may be shown once.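 Interpolation was linear, between the two tested concentrations surrounding the appropriate level; five concentrations were tested over 48 hours in 96-well plates. At the GI50, growth is halved. TGI: concentration producing complete growth inhibition.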 Some results are limits rather than exact numbers.

Among the test systems are DLD-1 colon; DMS 114 small cell lung; HOP-18 NSCLC; KM20L2 colon; M19-MEL melanoma; RXF-631 renal; SNB-78 CNS; XF 498 CNS; MDA-N; P388 leukemia; P388/ADR leukemia; SN12K1 renal.
Common to all, as to assay: NCI tumour cell line growth inhibition, 48 h

As to `O=C(CC1(O)C(=O)Nc2c(Cl)ccc(Cl)c21)c1ccc(Cl)cc1` (configuration not stated), the TGI in the assay on DLD-1 colon is more than 100 µM; in the assay with DMS 114 small cell lung it was 49.2 µM; with HOP-18 NSCLC, more than 100 µM; in the assay on KM20L2 colon, more than 100 µM; in the assay with M19-MEL melanoma it was 33.3 µM; with RXF-631 renal it was 64.3 µM. Further, the TGI is more than 100 µM with SNB-78 CNS and 39.9 µM in the assay on XF 498 CNS.
`O=C1NC(c2ccccc2Cl)Nc2ccccc21` (configuration not stated) displayed a TGI in the assay on MDA-N of 3.29 µM.
On to `O=C(/C=C(\[O-])c1ccccc1)CCCCCCC(=O)/C=C(\[O-])c1ccccc1.O=C(/C=C(\[O-])c1ccccc1)CCCCCCC(=O)/C=C(\[O-])c1ccccc1.O=C(/C=C(\[O-])c1ccccc1)CCCCCCC(=O)/C=C(\[O-])c1ccccc1.[Y+3].[Y+3]`, for which, in the assay on KM20L2 colon, the GI50 is more than 50 µM and the TGI was more than 50 µM.
Regarding `CN(C)c1ccc(/C=c2/sc3nc(=O)c(-c4ccccc4NC(=O)C(F)(F)F)nn3c2=O)cc1`, the TGI in the assay with DLD-1 colon is more than 100 µM; in the assay with DMS 114 small cell lung, 57.2 µM; in the assay on M19-MEL melanoma, more than 100 µM; with SNB-78 CNS it was more than 100 µM; with XF 498 CNS it was more than 100 µM.
In the case of `C/C(=C\c1ccccc1)C(O)C(=O)c1nc2ccc(Cl)cc2[nH]c1=O` (configuration not stated), the TGI with DLD-1 colon, in the assay with DMS 114 small cell lung, in the assay with KM20L2 colon, in the assay with M19-MEL melanoma, in the assay with SNB-78 CNS and with XF 498 CNS was more than 100 µM throughout.
With `CCCCC(C(=O)C(=O)Nc1ccccc1CC)C(=O)C(C)C` (configuration not stated), the TGI with DLD-1 colon, in the assay with DMS 114 small cell lung, in the assay on KM20L2 colon, in the assay on M19-MEL melanoma, in the assay on RXF-631 renal and in the assay with SNB-78 CNS was more than 100 µM each time. This molecule also had a TGI in the assay on XF 498 CNS of more than 100 µM.
For the molecule `CC(=O)NC(CCCNC(=O)OCc1ccccc1)C(=O)NCc1ccccc1` (configuration not stated), the TGI with DLD-1 colon, with DMS 114 small cell lung, with KM20L2 colon, with M19-MEL melanoma and in the assay with XF 498 CNS was more than 100 µM in each case.
For `CC1(C)CC2=NO[Se]3=C2C(=NO3)C1`, the TGI in the assay with MDA-N is 4.22 µM.
As to `O=[N+]([O-])c1ccc(/C=C/c2ccc(/C=C/c3ccc([N+](=O)[O-])cc3[N+](=O)[O-])cc2)c([N+](=O)[O-])c1`, the TGI with DLD-1 colon, in the assay on DMS 114 small cell lung, in the assay on KM20L2 colon, with SNB-78 CNS and in the assay on XF 498 CNS was more than 100 µM throughout.
Molecule `O=C1c2ccccc2N1C(=O)c1ccccc1[N+](=O)[O-]` registered a TGI in the assay with MDA-N of more than 100 µM.
As to `N#CC1(CCCCl)CCCCC1`, the TGI with DLD-1 colon, with DMS 114 small cell lung, with HOP-18 NSCLC, in the assay with KM20L2 colon, in the assay on M19-MEL melanoma and in the assay with RXF-631 renal was more than 100 µM in each case. Also, the TGI in the assay on SNB-78 CNS and with XF 498 CNS was more than 100 µM in each case.
Take `CCOC(=O)C1C(NC(N)=O)N(Cc2ccccc2)C(=O)N1Cc1ccccc1` (configuration not stated): the TGI with DLD-1 colon, in the assay with DMS 114 small cell lung, with HOP-18 NSCLC, in the assay on KM20L2 colon, in the assay with M19-MEL melanoma and in the assay with RXF-631 renal was more than 100 µM in each case. Also, the figures for the TGI in the assay on SNB-78 CNS and in the assay with XF 498 CNS were 29.2 µM and more than 100 µM, respectively.
In the assay with MDA-N, `NS(=O)(=O)c1cc2c(cc1Cl)NCNS2(=O)=O` had a TGI of more than 100 µM.
In the case of `N#Cc1c(CC(=O)O)cc(=O)n2c1[nH]c1ccccc12`, the TGI in the assay on DLD-1 colon, in the assay on DMS 114 small cell lung, with KM20L2 colon, with M19-MEL melanoma and in the assay with SNB-78 CNS was more than 100 µM in each case.
For `O/N=C1/C(=C/c2ccc(OCc3ccccc3)cc2)CCCC1C(NO)c1ccc(OCc2ccccc2)cc1` (configuration not stated), the TGI with DLD-1 colon, in the assay on HOP-18 NSCLC, in the assay with KM20L2 colon, in the assay with M19-MEL melanoma and in the assay with RXF-631 renal was more than 100 µM each time.
Turning to `CCCCCNC(=O)CCCCCCCCCCCNC(=O)CCCCCCCCCCN1C=CC(=CC=C2C=CC(=O)C=C2)C=C1`, the TGI in the assay with DLD-1 colon was more than 100 µM; in the assay with DMS 114 small cell lung it was more than 100 µM; with KM20L2 colon, more than 100 µM; in the assay on M19-MEL melanoma, more than 100 µM; in the assay on RXF-631 renal, more than 100 µM; in the assay with SNB-78 CNS, 96.9 µM. This molecule also gave a TGI in the assay with XF 498 CNS of more than 100 µM.
With `O=C1NC(=O)C2C3C=CC(C12)C1C2C(=O)NC(=O)C2C31` (configuration not stated), the GI50 with DLD-1 colon was 39 µM; with DMS 114 small cell lung, more than 60.5 µM; with HOP-18 NSCLC, more than 63.3 µM; with M19-MEL melanoma it was 98.2 µM; in the assay with MDA-N, 193 µM. Moreover, the TGI with DLD-1 colon is 250 µM; in the assay with DMS 114 small cell lung, 233 µM; in the assay with HOP-18 NSCLC it was 98.8 µM and 250 µM; in the assay on KM20L2 colon, 250 µM; with M19-MEL melanoma it was 250 µM; in the assay with MDA-N, 250 µM and > 1000 µM. Besides, the TGI stood at 228 µM in the assay with P388 leukemia; 250 µM in the assay on P388/ADR leukemia; 250 µM with SN12K1 renal; 250 µM with SNB-78 CNS; 244 µM in the assay with XF 498 CNS.
`CC(C)(C)C1CCC(O)(c2ccccc2)CC1` (configuration not stated): the TGI with DLD-1 colon is > 100 µM and 75.5 µM; in the assay on DMS 114 small cell lung it was > 100 µM and 52.5 µM; in the assay with HOP-18 NSCLC, more than 100 µM; with KM20L2 colon, > 100 µM and 31.7 µM; in the assay with M19-MEL melanoma, > 100 µM and 41.6 µM; with SNB-78 CNS, > 100 µM and 57 µM. In the assay with XF 498 CNS, this molecule returned a TGI of 22.9 µM.
For the molecule `COc1ccc(C(C)Nc2cc(OC)c(OC)c(OC)c2)cc1` (configuration not stated), the TGI in the assay on DLD-1 colon was more than 100 µM; with HOP-18 NSCLC it was more than 100 µM; in the assay with KM20L2 colon, 7.3 µM; with M19-MEL melanoma, more than 100 µM; in the assay with SNB-78 CNS, 17.6 µM; in the assay with XF 498 CNS, more than 26.4 µM.
Take `Cc1ccccc1NC(=O)CC(=O)NNCC(=O)Nc1nnc(-c2ccccc2)s1`: the TGI in the assay on DLD-1 colon was more than 100 µM; in the assay on DMS 114 small cell lung, more than 100 µM; in the assay on HOP-18 NSCLC it was 96.2 µM; in the assay with KM20L2 colon, more than 100 µM; with M19-MEL melanoma it was more than 100 µM; in the assay on RXF-631 renal, more than 100 µM. The TGI in the assay on SNB-78 CNS and with XF 498 CNS was more than 100 µM throughout.

Values taken from PubChem BioAssay (NCI).
